Reference: patent US9108936B2, “Substituted 4-aminobenzamides as KCNQ2/3 modulators” (GRUENENTHAL GMBH, priority 2012, dated 2015)

Key:
[1] = molecular target: T1, KCNQ2/3 channels (Homo sapiens, UniProt O43525+O43526); experiment: Fluorescence assay using a voltage sensitive dye (fluorimetry); format: cell-based; details: CHO-K1 cells expressing KCNQ2/3; for Emax: plateau effect relative to saturated Retigabine (50 μM), read-out: Fluorimetry % efficacy (retigabine = 100%); for EC50: voltage-sensitive dye, KCl depolarization, read-out: Fluorimetry EC50/IC50
T1 construct: expressed in transfected cells; host or cells: CHO-K1
Excerpt: Method I. Fluorescence Assay Using a Voltage Sensitive Dye (Fluorimetry)
The modulation of the KCNQ opening state (and consequently the voltage potential of a cell) by test compounds such as compounds according to the present invention results in an increased or reduced amount of a voltage-sensitive dye in the cytoplasm of the cells tested. These voltage-sensitive dyes are fluorescent dyes and, therefore, are forming the link between cell potential influenced by KCNQ modulation and fluorescence intensity. A KCNQ agonist leads to an opening of the channel, potassium and dye efflux, a following hyperpolarization and a reduction of the inner fluorescence intensity in a kinetic protocol. If applying an ion jump by KCl depolarization, KCNQ agonists increase the ΔF/F value. An antagonist performs vice versa, respectively.
The ‘fluorimetry EC50’ is the half maximum effective concentration (EC50), where the concentration of a drug/compound induces a response halfway between the baseline and maximum plateau effect. In other words, said value represents the concentration of a compound, where 50% of its maximal effect in the fluorimetric assay is observed if the substance concentration is graphed against the corresponding ΔF/F values (for which the calculation method is described below). Therefore, ‘fluorimetry EC50’ is a measure for the compound potency. The compound efficacy is mirrored by ‘fluorimetry % efficacy’ (‘% Efficacy’) and refers to the maximum response achievable by the test compound, i.e. the plateau effect. This drug's plateau effect is related to the plateau effect, which can be achieved by applying a saturated concentration of a reference compound, e.g. Retigabine (50 μM), in independent wells of the same experimental plate or series. A compound showing 100% efficacy is as efficacious as the reference compound (Retigabine) with a saturated concentration.
[…] CHO-K1 cells expressing KCNQ2/3 channels are cultivated adherently at 37° C., 5% CO2 and 95% humidity in cell culture bottles (e.g. 80 cm^2 TC flasks, Nunc) with DMEM-high glucose (Sigma Aldrich, D7777) including 10% FCS (PAN Biotech, e.g. 3302-P270521) or alternatively MEM Alpha Medium (1×, liquid, Invitrogen, #22571), 10% fetal calf serum (FCS) (Invitrogen, #10270-106, heat-inactivated) and the necessary selection antibiotics.
Before being sown out for the measurements, the cells are washed with 1× DPBS buffer Ca^2+/Mg^2+-free (e.g. Invitrogen, #14190-094) and detached from the bottom of the culture vessel by using Accutase (PAA Laboratories, #L11-007) (incubation with Accutase for 15 min at 37° C.). The cell number is determined using a CASY™ cell counter (TCC, Schärfe System). Depending on the optimal density for each individual cell line, 20,000-30,000 cells/well/100 μl are seeded onto 96-well Corning™ CellBIND™ assay plates (Flat Clear Bottom Black Polystyrene Microplates, #3340). Freshly seeded cells are then left to settle for one hour at room temperature, followed by incubation for 24 hours at 37° C., 5% CO2 and 95% humidity.
The voltage-sensitive fluorescent dye from the Membrane Potential Assay Kit (Red™ Bulk format part R8123 for FLIPR, MDS Analytical Technologies™) is prepared by dissolving the contents of one vessel Membrane Potential Assay Kit Red Component A in 200 ml of extracellular buffer (ES buffer, 120 mM NaCl, 1 mM KCl, 10 mM HEPES, 2 mM CaCl2, 2 mM MgCl2, 10 mM glucose; pH 7.4). After removal of the nutrient medium, the cells are washed once with 200 μl of ES buffer, then loaded for 45 min at room temperature in 100 μl of dye solution in the dark.
Fluorescence measurements are carried out in a BMG Labtech FLUOstar™, BMG Labtech NOVOstar™ or BMG Labtech POLARstar™ instrument (525 nm excitation, 560 nm emission, Bottom Read mode). […]

[2] = tested on: Male Sprague-Dawley rats; experiment: Low-intensity tail flick test (rat); format: in vivo; details: for ED50: po, peroral, at time of maximum efficacy
Procedure: Method II. Low-Intensity Tail Flick Test (Rat)
In the low-intensity tail flick test, the determination of the antinociceptive effect of the compounds according to the invention towards an acute noxious thermal stimulus is carried out by measuring the withdrawal reflex of the rat tail (tail flick) in response to a radiant heat beam (analgesia meter; model 2011 of the company Rhema Labortechnik, Hofheim, Germany) according to the method described by D'Amour and Smith (J. Pharm. Exp. Ther. 72, 74 79 (1941). To this end, the rats were placed in a plexiglas restrainer, and a low-intensity radiant heat beam (48° C.) was focused onto the dorsal surface of the tail root. The stimulus intensity was adjusted to result in a mean pre-drug control withdrawal latency of about 7 s, thus also allowing a supraspinal modulation of the spinally mediated acute nociceptive reflex. A cutoff time of 30 s was applied to avoid tissue damage. Male Sprague-Dawley rats (Janvier, Le Genest St. Isle, Frankreich) with weights of 200-250 g were used. 10 rats were used per group. Before administration of a compound according to the invention, the animals were pre-tested twice in the course of five minutes and the mean of these measurements was calculated as the pre-test mean. The antinociceptive effect was determined at 20, 40 and 60 min after peroral compound administration. The antinociceptive effect was calculated based on the increase in the tail withdrawal latency according to the following formula and is expressed as percentage of the maximum possible effect (MPE [%]): MPE=[(T1−T0)/(T2−T0)]*100
In this, T0 is the control latency time before and T1 the latency time after administration of the compound, T2 is the cutoff time and MPE is the maximum possible effect. Employing variant analysis (repeated measures ANOVA) allowed testing of statistically significant differences between the compounds according to the invention and the vehicle group. The significance level was set to p≦0.05. To determine the dose dependency, the particular compound according to the invention was administered in 3-5 logarithmically increasing doses, including a threshold dose and a maximum effective dose, and the ED50 values were determined with the aid of regression analysis. The ED50 calculation was performed at the time of maximum efficacy (usually 20 min after administration of the compounds).

Row | SMILES | Emax [1] | EC50 [1] | Low intensity tail flick, rat, peroral, MPE (dose) ([2]; dose 14.7 mg/kg) | ED50 [2] | Low intensity tail flick, rat, peroral, MPE (dose) ([2]; dose 10 mg/kg)
1 | Cc1cc(N2CCOCC2)cc(C(C)C)c1C(=O)NCc1ccc(F)cc1 [Example 17, N-[(4-Fluorophenyl)methyl]-2-isopropyl-6-methyl-4-morpholin-4-yl-benzamide] | 179% | 663 nM | 100% | 2.5 mg/kg | 
2 | Cc1cc(N2CCOCC2)cc(C(C)C)c1C(=O)NCc1ccc(Cl)cc1 [Example 14, N-[(4-Chlorophenyl)-methyl]-2-isopropyl-6-methyl-4-morpholin-4-yl-benzamide] | 175% | 136 nM |  | 3.6 mg/kg | 92%
3 | CCSc1cc(N2CCOCC2)cc(C)c1C(=O)NCc1cccc(F)c1 [Example 1, 2-Ethylsulfanyl-N-[(3-fluorophenyl)-methyl]-6-methyl-4-morpholin-4-yl-benzamide] | 163% | 1480 nM |  |  | 
4 | Cc1cc(N2CCOCC2)cc(C2CCCC2)c1C(=O)NCc1ccc(Cl)cc1 [Example 16, N-[(4-Chlorophenyl)-methyl]-2-cyclopentyl-6-methyl-4-morpholin-4-yl-benzamide] | 194% | 33 nM |  |  | 
5 | CCSc1cc(N2CCOC[C@H]2C)cc(C)c1C(=O)NCCCC(C)(C)C [Example 5, N-(4,4-Dimethyl-pentyl)-2-ethylsulfanyl-6-methyl-4-[(3R)-3-methyl-morpholin-4-yl]-benzamide] | 246% | 108 nM |  |  | 
6 | Cc1cc(N2CCOCC2)cc(C(C)C)c1C(=O)NCc1ccc(OC(F)(F)F)cc1 [Example 23, 2-Isopropyl-6-methyl-4-morpholin-4-yl-N-[[4-(trifluoromethyloxy)-phenyl]-methyl]-benzamide] | 161% | 139 nM |  |  | 
7 | Cc1cc(N2CCOCC2)cc(C(C)C)c1C(=O)NCC[C@@H](O)C(C)(C)C [Example 30, N-[(3R)-3-Hydroxy-4,4-dimethyl-pentyl]-2-isopropyl-6-methyl-4-morpholin-4-yl-benzamide] | 212% | 3100 nM |  |  | 
8 | CCSc1cc(N2CCOCC2)cc(C)c1C(=O)NCc1ccc(Cl)cc1 [Example 2, N-[(4-Chlorophenyl)-methyl]-2-ethylsulfanyl-6-methyl-4-morpholin-4-yl-benzamide] | 152% | 483 nM |  |  | 
9 | CCOc1cc(N2CCOCC2)cc(C)c1C(=O)NCc1ccc(Cl)cc1 [Example 11, N-[(4-Chlorophenyl)-methyl]-2-ethoxy-6-methyl-4-morpholin-4-yl-benzamide] | 141% | 1350 nM |  |  | 
10 | Cc1cc(N2CCCC2)cc(C(F)(F)F)c1C(=O)NCc1cccc(F)c1 [Example 26, N-[(3-Fluorophenyl)-methyl]-2-methyl-4-pyrrolidin-1-yl-6-(trifluoromethyl)-benzamide] | 156% | 453 nM |  |  | 
11 | Cc1cc(N2CCOCC2)cc(C2CC2)c1C(=O)NCc1ccc(OC(F)(F)F)cc1 [Example 25, 2-Cyclopropyl-6-methyl-4-morpholin-4-yl-N-[[4-(trifluoromethyloxy)-phenyl]-methyl]-benzamide] | 144% | 355 nM |  |  | 
12 | COc1cc(N2CCOCC2)cc(C(C)C)c1C(=O)NCc1ccc(Cl)cc1 [Example 40, N-[(4-Chlorophenyl)-methyl]-2-isopropyl-6-methoxy-4-morpholin-4-yl-benzamide] | 196% | 165 nM |  |  | 
